Where “and” joins values, the source holds several entries; their conditions need not be identical. Equal values may be shown once. Entries after “also recorded” stand apart in the source; their conditions may differ. Numbered stars: 1 amine (or outer) side, 2 acyl side, 3 side chain; on linkers, the order of the positions; unused ones are H or OH. Bridge positions count the residues as written; N and C are the ends. Square brackets hold non-standard residues; d marks the D form. Peptide text beside a SMILES is read from it. Acbc(cis-1,3) = O=C([C@H]1C[C@@H](N[*:1])C1)[*:2]; X1 = O=C([C@@H]1CC[C@H](N[*:1])C1)[*:2]
Experiments:
[1] = human serum (Cosmo Bio, 12181201); details: 37 °C, up to 100 h
[2] = test system: Vero E6 cells; set-up: method as in PMID 33786375; details: read-out: CC50 (half-maximal cytotoxic concentration); cited from earlier work
[3] = test system: recombinant SARS-CoV-2 M^pro; assay: M^pro 6 mg ml^–1 in 20 mM HEPES (pH 7.5) and 50 mM NaCl, co-crystallization with GM4; details: SARS-CoV-2, room temperature, crystals grown at 20 °C, up to one week
[4] = biological target: T1, SARS-CoV-2 M^pro (Severe acute respiratory syndrome coronavirus 2, UniProt P0DTD1); assay: biochemical; assay type: binding; details: for kon: read-out: ka (kinetic association)
[5] = Serum stability assay in human serum (LC/MS); details: for Remaining peptide (%) / remaining at 1 h, 10 μM / remaining at 4 h, 10 μM / remaining at 8 h, 10 μM / remaining at 24 h, 10 μM / remaining at 50 h, 10 μM / remaining at 100 h, 10 μM / remaining at 0.5 h, 10 μM / remaining at 2 h, 10 μM: 37 °C, relative to 0 h = 100%, technical replicates; for half-life at 10 μM / remaining at 1 h, 10 μM / remaining at 4 h, 10 μM / remaining at 8 h, 10 μM / remaining at 24 h, 10 μM / remaining at 50 h, 10 μM / remaining at 100 h, 10 μM / remaining at 0.5 h, 10 μM / remaining at 2 h, 10 μM: human; for remaining at 1 h, 10 μM / remaining at 4 h, 10 μM / remaining at 8 h, 10 μM / remaining at 24 h, 10 μM / remaining at 50 h, 10 μM / remaining at 100 h, 10 μM / remaining at 0.5 h, 10 μM / remaining at 2 h, 10 μM: Remaining peptide (%)
[6] = biological target: T1, SARS-CoV-2 M^pro; assay: biochemical; assay type: biochemical
[7] = read-out: EC50 (antiviral activity in cells); cited from earlier work
[8] = incubation time 100 h, 6000 min

Row | Compound | Kd [4] | kd (kinetic dissociation) [4] | kon [4] | Remaining peptide (%) ([5]; incubation time 1 h, 60 min) | Remaining peptide (%) ([5]; incubation time 4 h, 240 min) | Remaining peptide (%) ([5]; incubation time 8 h, 480 min) | Remaining peptide (%) ([5]; incubation time 24 h, 1440 min) | Remaining peptide (%) ([5]; incubation time 50 h, 3000 min) | half-life at 10 μM [5] | remaining at 1 h, 10 μM ([5]; incubation time 1 h) | remaining at 4 h, 10 μM ([5]; incubation time 4 h) | remaining at 8 h, 10 μM ([5]; incubation time 8 h) | remaining at 24 h, 10 μM ([5]; incubation time 24 h) | remaining at 50 h, 10 μM ([5]; incubation time 50 h) | IC50 [6] | inhibition at 2.75 µM [6] | Remaining peptide (%) ([5]; incubation time 2 h, 120 min) | remaining at 2 h, 10 μM ([5]; incubation time 2 h) | other results
1 | ^AcyFHA LNLGYRPGc-NH2 ({CH2CO}-[dY]FHALNLGYRPG[dC]-NH2; thioether N-13) |  |  |  |  |  |  |  |  |  |  |  |  |  |  |  |  |  |  | cleaved bond [1]: F2-H3, 24 h; also recorded: L5-N6, 24 h; also recorded: P11-G12, 24 h; also recorded: G12-c13, 24 h
2 | O=c1[nH]cc(-c2cc(-c3cc(Cl)c(F)c(OCc4ccccc4Cl)c3)c(=O)n(-c3cccnc3)c2)c(=O)[nH]1 [compound 23] |  |  |  |  |  |  |  |  |  |  |  |  |  |  |  |  |  |  | CC50 [2]: 1150 nM
3 | ^AcyFHγ^1LNLGYRPGc-NH2 ({CH2CO}-[dY]FH[Acbc(cis-1,3)]LNLGYRPG[dC]-NH2; thioether N-13) |  |  |  |  |  |  |  |  |  |  |  |  |  |  |  |  |  |  | not cleaved [3]: complete intact peptide in the active site pocket; cleaved bond [1]: L5-N6, 24 h; also recorded: N6-L7, 24 h; also recorded: R10-P11, 24 h; also recorded: P11-G12, 24 h; also recorded: G12-c13, 24 h
4 | CC(C)C[C@@H]1NC(=O)[C@H]([C@@H](C)O)NC(=O)[C@H](Cc2ccc(O)cc2)NC(=O)[C@H]([C@@H](C)O)NC(=O)[C@H](Cc2c[nH]cn2)NC(=O)[C@@H]2CCCN2C(=O)[C@@H]2CCCN2C(=O)[C@H](Cc2ccccc2)NC(=O)[C@H]2C[C@H](C2)NC(=O)[C@H](Cc2c[nH]cn2)NC(=O)[C@H](Cc2ccccc2)NC(=O)[C@@H](Cc2ccc(O)cc2)NC(=O)CSC[C@H](C(N)=O)NC1=O [GM1] ({CH2CO}-[dY]FH[Acbc(cis-1,3)]FPPHTYTL[dC]-NH2; thioether N-13) | 2.3 nM | 0.94 10^-3 s^-1 | 410000 M⁻¹ s⁻¹ | 111.08% and 111.88% | 108.25% and 114.45% | 111.46% and 107.42% | 74.66% and 74.47% | 63.33% and 64.88% | 90 h | 111% | 115% | 116% | 77.3% | 67.1% | 40 nM | 100% |  |  | Remaining peptide (%) [5, 8]: 44.95% and 47.73%; remaining at 100 h, 10 μM ([5]; incubation time 100 h): 49%; inhibition at 0.000141 µM [6]: 4.71%; inhibition at 0.0347 µM [6]: 43.7%; inhibition at 0.102 µM [6]: 75.5%; inhibition at 0.309 µM [6]: 93.7%; inhibition at 0.933 µM [6]: 100%; inhibition at 8.32 µM [6]: 100%
5 | CC(C)C[C@@H]1NC(=O)[C@@H](Cc2ccc(O)cc2)NC(=O)CSC[C@H](C(N)=O)NC(=O)[C@H](C)NC(=O)[C@H](C)NC(=O)[C@H](Cc2ccc(O)cc2)NC(=O)[C@H](CCCNC(=N)N)NC(=O)[C@H](Cc2ccc(O)cc2)NC(=O)[C@@H]2CC[C@@H](C2)NC(=O)[C@H](CO)NC(=O)[C@H](Cc2ccc(O)cc2)NC(=O)[C@H]([C@@H](C)O)NC(=O)[C@H](CO)NC(=O)[C@H](C)NC(=O)[C@H](Cc2ccc(O)cc2)NC(=O)[C@H](Cc2c[nH]cn2)NC1=O [GM3] ({CH2CO}-[dY]LHYASTYS[X1]YRYAA[dC]-NH2; thioether N-16) | 62 nM | 13 10^-3 s^-1 | 200000 M⁻¹ s⁻¹ | 71.95% and 68.98% | 43.40% and 39.26% | 15.43% and 15.99% |  |  | 2.5 h | 60.8% | 45.6% | 15.7% | 0% |  | 2060 nM | 66.3% | 55.38% and 55.49% | 48.5% | Remaining peptide (%) ([5]; incubation time 0.5 h, 30 min): 72.71% and 73.43%; remaining at 0.5 h, 10 μM ([5]; incubation time 0.5 h): 67.7%
6 | CC[C@H](C)[C@@H]1NC(=O)[C@H](Cc2ccc(O)cc2)NC(=O)[C@H](CC(C)C)NC(=O)[C@H](CC(=O)O)NC(=O)[C@H](CCCNC(=N)N)NC(=O)[C@H](Cc2ccccc2)NC(=O)[C@H](C)NC(=O)[C@H](Cc2c[nH]cn2)NC(=O)[C@H](Cc2ccccc2)NC(=O)[C@@H](Cc2ccc(O)cc2)NC(=O)CSC[C@H](C(N)=O)NC(=O)CNC(=O)[C@H](CC(C)C)NC1=O [GM5γ^24A] ({CH2CO}-[dY]FHAFRDLYILG[dC]-NH2; thioether N-13) | 61 nM | 8.7 10^-3 s^-1 | 140000 M⁻¹ s⁻¹ | 85.94% and 86.10% | 83.58% and 80.89% | 69.62% and 72.73% | 51.61% and 49.70% | 25.37% and 24.58% | 21 h | 89.2% | 82.3% | 70.9% | 45.5% | 23% | 50 nM |  | 65.85% and 75.80% | 75.3% | Remaining peptide (%) [5, 8]: 8.38% and 8.41%; remaining at 100 h, 10 μM ([5]; incubation time 100 h): 7.6%; inhibition at 1.86 µM [6]: 100%; inhibition at 5.62 µM [6]: 100%; inhibition at 16.6 µM [6]: 100%; inhibition at 50.1 µM [6]: 100%; inhibition at […] [6]: 100%
7 | CC(C)C[C@@H]1NC(=O)[C@@H](Cc2ccc(O)cc2)NC(=O)CSC[C@H](C(N)=O)NC(=O)[C@H](C)NC(=O)[C@H](C)NC(=O)[C@H](Cc2ccc(O)cc2)NC(=O)[C@H](CCCNC(=N)N)NC(=O)[C@H](Cc2ccc(O)cc2)NC(=O)[C@H](C)NC(=O)[C@H](CO)NC(=O)[C@H](Cc2ccc(O)cc2)NC(=O)[C@H]([C@@H](C)O)NC(=O)[C@H](CO)NC(=O)[C@H](C)NC(=O)[C@H](Cc2ccc(O)cc2)NC(=O)[C@H](Cc2c[nH]cn2)NC1=O [GM3γ^210A] ({CH2CO}-[dY]LHYASTYSAYRYAA[dC]-NH2; thioether N-16) | 7.5 nM | 2.1 10^-3 s^-1 | 280000 M⁻¹ s⁻¹ | 35.60% and 33.84% | 6.44% and 7.19% | 2.01% |  |  | 0.59 h | 33.1% | 7.23% | 2.04% | 0% |  | 120 nM | 100% | 15.90% and 15.53% | 17% | fold change in binding affinity relative to the original peptide [4]: eightfold stronger; Remaining peptide (%) ([5]; incubation time 0.5 h, 30 min): 47.41% and 46.64%; remaining at 0.5 h, 10 μM ([5]; incubation time 0.5 h): 44.4%; inhibition at 0.309 µM [6]: 77.9%; inhibition at 0.933 µM [6]: 95.6%; inhibition at 8.32 µM [6]: 100%
8 | CC(C)C[C@@H]1NC(=O)[C@H]([C@@H](C)O)NC(=O)[C@H](Cc2ccc(O)cc2)NC(=O)[C@H]([C@@H](C)O)NC(=O)[C@H](Cc2c[nH]cn2)NC(=O)[C@@H]2CCCN2C(=O)[C@@H]2CCCN2C(=O)[C@H](Cc2ccccc2)NC(=O)[C@H](C)NC(=O)[C@H](Cc2c[nH]cn2)NC(=O)[C@H](Cc2ccccc2)NC(=O)[C@@H](Cc2ccc(O)cc2)NC(=O)CSC[C@H](C(N)=O)NC1=O [GM1γ^14A] ({CH2CO}-[dY]FHAFPPHTYTL[dC]-NH2; thioether N-13) | 10 nM | 3.2 10^-3 s^-1 | 320000 M⁻¹ s⁻¹ | 87.05% and 85.28% | 65.45% and 64.12% | 51.43% and 52.89% | 25.58% and 25.19% | 4.30% and 4.38% | 8.3 h | 84.3% | 63.2% | 56.1% | 26.4% | 4.46% | > 5000 nM |  | 71.54% and 71.96% | 70.6% | fold change in binding affinity relative to the original peptide [4]: fourfold weaker; inhibition of M^pro (in words) [6]: inhibition was ablated
9 | Cn1cnc(Cn2c(=O)[nH]/c(=N\c3cc4cn(C)nc4cc3Cl)n(Cc3cc(F)c(F)cc3F)c2=O)n1 [S-217622] |  |  |  |  |  |  |  |  |  |  |  |  |  |  |  |  |  |  | EC50 [7]: 370 nM

Source: paper PMC10322702 (Nature Chemistry, 2023)
